The values that follow are results of earlier work, collected in patent US20130243861A1, “PRESS-COATED TABLETS OF PREDNISONE” (CADILA HEALTHCARE LIMITED, priority 2012, published 2013).

In the case of `C[C@]12C=CC(=O)C=C1CC[C@@H]1[C@@H]2C(=O)C[C@@]2(C)[C@H]1CC[C@]2(O)C(=O)CO` [Prednisone, pregna-1,4-diene-3,11,20-trione, 17,21-dihydroxy-], the solubility in water result is listed as “very slightly soluble”.
